Assay results as given in patent US20140023611A1 (priority 2010, published 2014).

Columns and labels:
rat NaP2b (SLC34A2) [1] = target: T1, rat NaP2b (SLC34A2) (Rattus norvegicus, UniProt Q9JJ09); test: NaP2b-mediated Pi transport (33P uptake) in transfected HEK293 cells, rat NaP2b; format: cell-based; details: Structure (V) examples, Table 2; rat NaP2b, HEK293; read-out: pIC50 Range (converted)
T1 construct: host or cells: HEK293
T1 sequence (Q9JJ09 1-695): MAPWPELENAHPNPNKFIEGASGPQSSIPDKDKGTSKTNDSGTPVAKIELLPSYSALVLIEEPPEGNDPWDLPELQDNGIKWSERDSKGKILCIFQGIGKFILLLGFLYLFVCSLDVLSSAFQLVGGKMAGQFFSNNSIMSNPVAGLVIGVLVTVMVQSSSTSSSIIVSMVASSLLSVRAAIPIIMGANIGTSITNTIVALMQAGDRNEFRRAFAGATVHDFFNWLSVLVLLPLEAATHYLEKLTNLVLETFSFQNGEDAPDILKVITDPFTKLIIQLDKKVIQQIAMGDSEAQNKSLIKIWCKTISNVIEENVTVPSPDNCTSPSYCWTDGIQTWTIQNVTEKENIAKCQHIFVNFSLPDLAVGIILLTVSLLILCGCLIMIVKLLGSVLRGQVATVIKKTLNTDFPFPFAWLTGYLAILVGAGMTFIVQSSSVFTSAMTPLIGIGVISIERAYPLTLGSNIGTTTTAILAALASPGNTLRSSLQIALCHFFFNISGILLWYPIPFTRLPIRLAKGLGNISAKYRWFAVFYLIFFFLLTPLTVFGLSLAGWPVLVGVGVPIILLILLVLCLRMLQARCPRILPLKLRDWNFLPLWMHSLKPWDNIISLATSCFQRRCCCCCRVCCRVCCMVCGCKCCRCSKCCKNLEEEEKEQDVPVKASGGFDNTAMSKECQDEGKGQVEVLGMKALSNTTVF
Description: HEK293 cells were obtained from the American Type Culture collection and propagated per their instructions. Expression clones for rat and human NaP2b (SLC34A2) were obtained from Open Biosystems (Catalog numbers MRN1768-9510282, and MHS1010-99823026, respectively). The sequence of the human protein was mutated to insert a threonine after residue 37, and to introduce a N39D mutation.
(§1) The rate of phosphate (Pi) uptake into HEK293 cells was measured using a modification of the method described by Mohrmann et al. (Mohrmann, I., Mohrmann, M., Biber, J., and Murer, H. (1986) Am. J. Phys. 250(3 Pt 1):G323-30.) Transfected HEK293 cells were treated with a pharmacological agent to minimize endogenous PiT-mediated phosphate transport activity, such that the only remaining sodium-dependent phosphate transport activity is that which was bestowed by introduction of the NaP2b genes.
(§2) Cells were seeded into 96-well plates at 25,000 cells/well and cultured overnight. Lipofectamine 2000 (Invitrogen) was used to introduce the NaP2b cDNA, and the cells were allowed to approach confluence during a second overnight incubation. […] Cells were then overlayed with either choline uptake buffer or sodium uptake buffer (14 mM Tris, 137 mM sodium chloride, 5.4 mM KCl, 2.8 mM CaCl2, 1.2 mM MgSO4, 100 uM KH2PO4, PiT-silencing agent, 1 mg/mL Bovine Serum Albumin, pH 7.4) containing 6-9 uCi/mL ^33P orthophosphoric acid (Perkin Elmer) and test compound. Each compound was tested at twelve concentrations ranging from 0.1 nM to 30 uM. Assays were run in duplicate.
After incubation for 3-30 minutes at room temperature, assay mixtures were removed, and the cells were washed twice with ice cold stop solution (137 mM sodium chloride, 14 mM Tris, pH 7.4). Cells were lysed by addition of 20 μL 0.1% Tween 80 followed by 100 μL scintillation fluid, and counted using a TopCount (Perkin Elmer).
pIC50 (the negative log of the IC50) values of the test compounds were calculated using GraphPad Prism.
HEK293 cells were obtained from the American Type Culture collection and propagated per their instructions. Expression clones for rat and mouse NaP2b (SLC34A2) cDNAs were obtained from Open Biosystems (Catalog numbers MRN1768-9510282 and MMM1013-98478398 respectively).
as §1, with “phosphate” for “phosphate (Pi)”
as §2, with “agent, 0.1% wt/v bovine serum albumin,” for “agent, 1 mg/mL Bovine Serum Albumin,”, “Each compounds” for “Each compound”
After incubation for 3-30 minutes at room temperature, assay mixtures were removed, and the cells were washed twice with ice cold stop solution (137 mM sodium chloride, 14 mM Tris, pH 7.4).

[2] = test system: uptake of phosphate from the intestine; test: In vivo assay: bolus phosphorus (phosphate) challenge; design: species or system Sprague-Dawley rats; details: Structure (V) examples, Table 4, rat, oral 30 mg/kg
Description: By pretreating animals with a low phosphorus diet followed by the subsequent dosing of a phosphorus bolus, serum phosphorus levels were monitored after 30 minutes as a surrogate for intestinal phosphorus absorption. […] The in vivo bolus phosphorus challenge model used here mimics this model in rats.
Male, 7-week-old Sprague-Dawley rats (Charles-River laboratories international, Hollister, Calif.) were allowed to acclimatize for a minimum of 3 days before switching to a synthetic low-phosphorus diet (TD.85010, Harlan Teklad, Madison, Wis.) which contains 0.1% phosphorus and 0.6% calcium. At day 5, testing compounds or vehicle alone (as indicated) were orally administered at the indicated dose in a volume of 5 ml/kg, followed by a bolus gavage of monobasic sodium phosphate (1 mmol in 1 ml) 15 min after compound dosing. Serum was collected via retroorbital bleeding 30 min post phosphate bolus and phosphate levels were determined utilizing an ACE ALERA blood chemistry analyzer (Alfa Wassermann Diagnostic Technologies, West Caldwell, N.J.). […]
Male, 7-week-old Sprague-Dawley rats (Charles-River laboratories international, Hollister, Calif.) were allowed to acclimate for a minimum of 3 days before switching to a synthetic low-phosphorus diet (TD.85010, Harlan Teklad, Madison, Wis.) which contains 0.1% phosphorus and 0.6% calcium. At day 5, testing compounds or vehicle alone (as indicated) were orally administered at the indicated dose in a volume of 5 ml/kg, followed by a bolus gavage of monobasic sodium phosphate (1 mmol in 1 ml) 15 min after compound dosing. Serum was collected via retroorbital bleeding 30 min post phosphate bolus and phosphate levels were determined utilizing an ACE ALERA blood chemistry analyzer (Alfa Wassermann Diagnostic Technologies, West Caldwell, N.J.).
Serum was collected 30 minutes after gavage, and phosphate levels measured. […] The in vivo bolus phosphate challenge model used here mimics this model in rats.
Male, 7-week-old Sprague-Dawley rats (Charles-River laboratories international, Hollister, Calif.) were allowed to acclimatize for a minimum of 3 days before switching to a low-phosphorus diet (TD.85010, Harlan Teklad, Madison, Wis.) which contains 0.1% phosphorus and 0.6% calcium. At day 5, testing compounds or vehicle alone (as indicated) were orally administered at the indicated dose in a volume of 5 ml/kg, followed by a bolus gavage of monobasic sodium phosphate (1 mmol in 1 ml) 15 min after compound dosing. Serum was collected via retroorbital bleeding 30 min post phosphate bolus and serum phosphate levels were determined utilizing an ACE ALERA blood chemistry analyzer (Alfa Wassermann Diagnostic Technologies, West Caldwell, N.J.).
The representative data on effects of test compounds on serum phosphate levels are shown in Table 4 (data are expressed as mean±SD, with 6 animals per data point). The differences between groups were evaluated by one-way analysis of variance with Dunnett's post hoc tests.

rat NaP2b (SLC34A2) [3] = target: T1, rat NaP2b (SLC34A2); test: Inhibition of NaP2b-mediated Pi (33P) uptake in transfected HEK293 cells, rat NaP2b; format: cell-based; details: 33P Pi uptake, 0.1 mM phosphate, value given as pIC50 range
Summary of the method: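 The cells transiently expressed NaP2b after Lipofectamine transfection. Each compound was run in duplicate over twelve concentrations, 0.1 nM–30 uM.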

NaPi2b = test: Competition with phosphate: Pi uptake assay repeated at 2.1 vs 0.1 mM phosphate; format: cell-based; details: potency at 2.1 vs 0.1 mM phosphate
Excerpt: For example, a phosphate uptake assay can be performed and the IC50 values for a compound at different phosphate concentrations can be determined (e.g., “Enzyme kinetics”, I. Segel, 1975, John-Wiley & Sons, p. 123). IC50 values for non-competitive inhibitors will remain the same or similar with respect to the phosphate concentration, whereas IC50 values for competitive inhibitors will increase (i.e lose potency) as phosphate concentration increases.
To ascertain if an inhibitor was competitive for binding with phosphate, the procedure was repeated, but raising the concentration of the substrate in the assay mixture from 0.1 to 2.1 mM phosphate.

human NaP2b (SLC34A2) = target: T2, human NaP2b (SLC34A2) (Homo sapiens, UniProt O95436); test: Inhibition of NaP2b-mediated Pi (33P) uptake in transfected HEK293 cells, human NaP2b; format: cell-based; details: read-out: pIC50 range for human NaP2b (converted)
T2 construct: host or cells: HEK293
T2 sequence (O95436 1-690): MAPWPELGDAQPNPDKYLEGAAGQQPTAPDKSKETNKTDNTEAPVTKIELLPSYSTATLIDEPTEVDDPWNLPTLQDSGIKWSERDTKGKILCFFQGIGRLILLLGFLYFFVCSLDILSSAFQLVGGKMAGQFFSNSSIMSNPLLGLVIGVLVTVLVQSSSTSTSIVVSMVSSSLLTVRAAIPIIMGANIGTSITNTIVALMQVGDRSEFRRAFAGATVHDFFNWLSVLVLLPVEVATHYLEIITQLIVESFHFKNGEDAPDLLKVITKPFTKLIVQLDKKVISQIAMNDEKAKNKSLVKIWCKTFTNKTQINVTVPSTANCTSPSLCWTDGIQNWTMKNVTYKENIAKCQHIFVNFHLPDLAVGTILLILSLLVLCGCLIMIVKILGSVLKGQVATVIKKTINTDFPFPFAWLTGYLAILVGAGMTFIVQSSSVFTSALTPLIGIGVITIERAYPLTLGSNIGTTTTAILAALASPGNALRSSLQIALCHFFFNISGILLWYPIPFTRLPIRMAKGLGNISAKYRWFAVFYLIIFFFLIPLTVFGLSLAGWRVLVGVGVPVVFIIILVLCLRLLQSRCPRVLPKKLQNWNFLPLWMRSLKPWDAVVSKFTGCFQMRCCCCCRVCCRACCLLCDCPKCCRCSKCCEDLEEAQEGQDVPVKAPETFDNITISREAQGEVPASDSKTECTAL
Summary of the method: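 Uptake of 33P-phosphate (100 uM KH2PO4 carrier, sodium vs choline buffer, pH 7.4) measured after 3-30 min at room temperature, with test compound at twelve concentrations from 0.1 nM to 30 uM in duplicate. Cells were HEK293 transfected with mutated human NaP2b (Thr insertion after 37, N39D) and treated with a PiT-silencing agent. pIC50 values from scintillation counts.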

Compound | IC50 (rat NaP2b (SLC34A2) [1]) | % Decrease in serum [Pi] [2] | Serum increase [Pi] mg/dL from baseline low PI state ([2]; mean ± SD, vehicle 5.0 ± 1.3) | IC50 (rat NaP2b (SLC34A2) [3]) | Competitive with respect to Pi? (NaPi2b) | IC50 (human NaP2b (SLC34A2))
O=C(Nc1ccc(N2CCCCC2)cc1C(=O)N/N=C/c1ccc(Cl)c(C(F)(F)F)c1)c1cccc(Cn2cnc(CCO)c2)c1 [Ex. 47, (E)-N-(2-(2-(4-chloro-3-(trifluoromethyl)benzylidene)hydrazinecarbonyl)-4-(piperidin-1-yl)phenyl)-3-((4-(2-hydroxyethyl)-1H-imidazol-1-yl)methyl)benzamide] | 0.1 to 0.794 µM | 28% | 3.6 ± 1.1 mg/dL | – | – | –
O=C(O)Cc1cccc(SCc2cccc(C(=O)Nc3ccc(N4CCCCC4)cc3-c3cc(C(=O)NCc4cccc(C(F)(F)F)c4)ccn3)c2)c1 [Example 8.18] | – | – | – | < 1 µM | No | –
O=C(O)c1cccc(S(=O)(=O)Cc2cccc(C(=O)Nc3ccc(N4CCCCC4)cc3-c3cc(C(=O)NCc4cccc(C(F)(F)F)c4)ccn3)c2)c1 [Example 8.26, 3-((3-((4-(Piperidin-1-yl)-2-(4-((3-(trifluoromethyl)benzyl)carbamoyl)pyridin-2-yl)phenyl)carbamoyl)benzyl)sulfonyl)benzoic acid] | – | – | – | 10 to 31.6 µM | No | –
O=C(O)CCOCCOCCOCCNC(=O)c1cccc(SCc2cccc(C(=O)Nc3ccc(N4CCCCC4)cc3-c3cc(C(=O)NCc4cccc(C(F)(F)F)c4)ccn3)c2)c1 [Example 10.1, 1-oxo-1-(3-(3-(4-(piperidin-1-yl)-2-(4-(3-(trifluoromethyl)benzyl-carbamoyl)pyridin-2-yl)phenylcarbamoyl)benzylthio)phenyl)-5,8,11-trioxa-2-azatetradecan-14-oic acid] | – | – | – | 1 to 7.94 µM | No | < 1 µM
